Data as given in patent publication US12662469B2 (SIRONAX LTD, priority 2018, dated 2026).

These compounds were tested on Cell Necrosis (assay: Cell necrosis assay / cell viability assay (necrosis inhibitor activity)). Conditions: not given.
Format: cell-based

Question: Which “activity based on the cell activity assay” value does the source give for `O=C1COc2cc(F)c(OC3CN(C(=O)N4N=CC[C@@H]4c4ccccc4)C3)cc2N1` [(R)-7-fluoro-6-((1-(5-phenyl-4,5-dihydro-1H-pyrazole-1-carbonyl)azetidin-3-yl)oxy)-2H-benzo[b][1,4]oxazin-3(4H)-one] here?
Answer: weak activity

Same assay, conditions: necrosis inhibitor activity; EC data for 14-191 extrapolated; read-out: EC50

Question: Which EC50 does the source give for `C[C@H]1CN(c2ncc(F)cn2)CCN1C(=O)N1N=CCC1c1ccccc1` (stereo in doubt) [Compound 111A, (S)-(4-(5-fluoropyrimidin-2-yl)-2-methylpiperazin-1-yl)(5-phenyl-4,5-dihydro-1H-pyrazol-1-yl)methanone] here?
Answer: 1 to 1000 nM

Question: For `C[C@H]1CN(c2ncc(F)cn2)CCN1C(=O)N1N=CCC1c1ccccc1` (stereo in doubt) [Compound 111B, (S)-(4-(5-fluoropyrimidin-2-yl)-2-methylpiperazin-1-yl)(5-phenyl-4,5-dihydro-1H-pyrazol-1-yl)methanone], which EC50 is on record?
Answer: 1000 to 10000 nM

Question: Which EC50 does the source give for `C[C@H]1CN(c2ncccn2)CCN1C(=O)N1N=CCC1c1ccccc1` (stereo in doubt) [Compound 112A, (S)-(2-methyl-4-(pyrimidin-2-yl)piperazin-1-yl)(5-phenyl-4,5-dihydro-1H-pyrazol-1-yl)methanone] here?
Answer: 1 to 1000 nM

Question: For `C[C@H]1CN(c2ncccn2)CCN1C(=O)N1N=CCC1c1ccccc1` (stereo in doubt) [Compound 112B, (S)-(2-methyl-4-(pyrimidin-2-yl)piperazin-1-yl)(5-phenyl-4,5-dihydro-1H-pyrazol-1-yl)methanone], which EC50 is on record?
Answer: 1000 to 10000 nM

Question: For `O=C(N1CCc2ccccc2C1)N1N=CCC1c1ccccc1` (stereo not drawn) [Compound 15, (3,4-dihydroisoquinolin-2(1H)-yl)(5-phenyl-4,5-dihydro-1H-pyrazol-1-yl)methanone], which EC50 is on record?
Answer: 1000 to 10000 nM

Question: For `O=C(N1CC(Cc2ccccc2)C1)N1N=CCC1c1ccccc1` (stereo not drawn) [Compound 16, (3-benzylazetidin-1-yl)(5-phenyl-4,5-dihydro-1H-pyrazol-1-yl)methanone], which EC50 is on record?
Answer: 1 to 1000 nM

Question: With `O=C(N1CCC(Cc2ccccc2)C1)N1N=CCC1c1ccccc1` (stereo not drawn) [Compound 17, (3-benzylpyrrolidin-1-yl)(5-phenyl-4,5-dihydro-1H-pyrazol-1-yl)methanone] as the compound, how does the EC50 read?
Answer: 1 to 1000 nM

Question: How did the EC50 turn out when `O=C(N1CCC(Cc2ccccc2)CC1)N1N=CCC1c1ccccc1` (stereo not drawn) [Compound 18, (4-benzylpiperidin-1-yl)(5-phenyl-4,5-dihydro-1H-pyrazol-1-yl)methanone] was run?
Answer: 1 to 1000 nM

Question: `O=C(N1CC(Nc2ccccc2)C1)N1N=CCC1c1ccccc1` (stereo not drawn) [Compound 19, (5-phenyl-4,5-dihydro-1H-pyrazol-1-yl)(3-(phenylamino)azetidin-1-yl)methanone] was tested. Which EC50 did it give?
Answer: 1000 to 10000 nM

Question: For `CN(c1ccccc1)C1CN(C(=O)N2N=CCC2c2ccccc2)C1` (stereo not drawn) [Compound 20, (3-(methyl(phenyl)amino)azetidin-1-yl)(5-phenyl-4,5-dihydro-1H-pyrazol-1-yl)methanone], which EC50 is on record?
Answer: 1000 to 10000 nM

Question: For `O=C(NC1CCC(c2ccccc2)C1)N1N=CCC1c1ccccc1` (stereo not drawn) [Compound 21, 5-phenyl-N-(3-phenylcyclopentyl)-4,5-dihydro-1H-pyrazole-1-carboxamide], which EC50 is on record?
Answer: 1 to 1000 nM

Question: For `O=C(NC1CCN(c2ncccn2)C1)N1N=CCC1c1ccccc1` (stereo not drawn) [Compound 22], which EC50 is on record?
Answer: 1000 to 10000 nM

Question: `O=C(NC1CCN(c2ccc(F)cn2)C1)N1N=CCC1c1ccccc1` (stereo not drawn) [Compound 23, N-(1-(5-fluoropyridin-2-yl)pyrrolidin-3-yl)-5-phenyl-4,5-dihydro-1H-pyrazole-1-carboxamide] was tested. Which EC50 did it give?
Answer: 1 to 1000 nM

Question: Which EC50 does the source give for `O=C(NC1CCN(c2ccccc2)C1)N1N=CCC1c1ccccc1` (stereo not drawn) [Compound 24, 5-phenyl-N-(1-phenylpyrrolidin-3-yl)-4,5-dihydro-1H-pyrazole-1-carboxamide] here?
Answer: 1 to 1000 nM

Question: With `O=C(N[C@H]1CC[C@H](Oc2ccccc2)C1)N1N=CCC1c1ccccc1` (stereo partly drawn) [Compound 25, N-((1S,3S)-3-phenoxycyclopentyl)-5-phenyl-4,5-dihydro-1H-pyrazole-1-carboxamide] as the compound, how does the EC50 read?
Answer: 1000 to 10000 nM

Question: With `O=C(N1CC[C@H](Oc2ccccc2)C1)N1N=CCC1c1ccccc1` (stereo partly drawn) [Compound 27A, ((S)-3-phenoxypyrrolidin-1-yl)(S-phenyl-4,5-dihydro-1H-pyrazol-1-yl)methanone] as the compound, how does the EC50 read?
Answer: 1000 to 10000 nM

Question: `O=C(N1CC[C@H](Oc2ccccc2)C1)N1N=CCC1c1ccccc1` (stereo partly drawn) [Compound 27B, ((S)-3-phenoxypyrrolidin-1-yl)(S-phenyl-4,5-dihydro-1H-pyrazol-1-yl)methanone] was tested. Which EC50 did it give?
Answer: 1 to 1000 nM

Question: `C[C@@H]1CN(c2ncc(F)cn2)C[C@H](C)N1C(=O)N1N=CCC1c1ccccc1` (stereo partly drawn) [Compound 28, ((2R,6S)-4-(5-fluoropyrimidin-2-yl)-2,6-dimethylpiperazin-1-yl)(5-phenyl-4,5-dihydro-1H-pyrazol-1-yl)methanone] was tested. Which EC50 did it give?
Answer: 1 to 1000 nM

Question: How did the EC50 turn out when `C[C@@H]1CN(c2ncc(F)cn2)C[C@H](C)N1C(=O)N1N=CCC1c1cccc(F)c1` (stereo partly drawn) [Compound 29, (5-(3-fluorophenyl)-4,5-dihydro-1H-pyrazol-1-yl)((2R,6S)-4-(5-fluoropyrimidin-2-yl)-2,6-dimethylpiperazin-1-yl)methanone] was run?
Answer: 1 to 1000 nM

Question: Which EC50 does the source give for `C[C@@H]1CN(c2ncc(F)cn2)C[C@H](C)N1C(=O)N1N=CCC1c1cc(F)cc(F)c1` (stereo partly drawn) [Compound 30, (5-(3,5-difluorophenyl)-4,5-dihydro-1H-pyrazol-1-yl)((2R,6S)-4-(5-fluoropyrimidin-2-yl)-2,6-dimethylpiperazin-1-yl)methanone] here?
Answer: 1 to 1000 nM

Question: For `O=C(N1CC[C@@H](Oc2ccccc2F)C1)N1N=CCC1c1ccccc1` (stereo partly drawn) [Compound 31, ((R)-3-(2-fluorophenoxy)pyrrolidin-1-yl)(5-phenyl-4,5-dihydro-1H-pyrazol-1-yl)methanone], which EC50 is on record?
Answer: 1 to 1000 nM

Question: For `O=C(N1CC[C@@H](Oc2cccc(F)c2)C1)N1N=CCC1c1ccccc1` (stereo partly drawn) [Compound 32, ((R)-3-(3-fluorophenoxy)pyrrolidin-1-yl)(5-phenyl-4,5-dihydro-1H-pyrazol-1-yl)methanone], which EC50 is on record?
Answer: 1 to 1000 nM

Question: `O=C(N1CC[C@@H](Oc2ccc(F)cc2)C1)N1N=CCC1c1ccccc1` (stereo partly drawn) [Compound 33, ((R)-3-(4-fluorophenoxy)pyrrolidin-1-yl)(5-phenyl-4,5-dihydro-1H-pyrazol-1-yl)methanone] was tested. Which EC50 did it give?
Answer: 1 to 1000 nM

Question: How did the EC50 turn out when `O=C(N1CC[C@@H](Oc2ncc(F)cn2)C1)N1N=CCC1c1ccccc1` (stereo partly drawn) [Compound 34, ((R)-3-((5-fluoropyrimidin-2-yl)oxy)pyrrolidin-1-yl)(5-phenyl-4,5-dihydro-1H-pyrazol-1-yl)methanone] was run?
Answer: 1000 to 10000 nM

Question: For `O=C(N1CC[C@@H](Oc2cccc(Cl)c2)C1)N1N=CCC1c1ccccc1` (stereo partly drawn) [Compound 35, ((R)-3-(3-chlorophenoxy)pyrrolidin-1-yl)(5-phenyl-4,5-dihydro-1H-pyrazol-1-yl)methanone], which EC50 is on record?
Answer: 1000 to 10000 nM

Question: For `O=C(N1CC(=Cc2ccccc2)C1)N1N=CCC1c1ccccc1` (stereo not drawn) [Compound 36, (3-benzylideneazetidin-1-yl)(5-phenyl-4,5-dihydro-1H-pyrazol-1-yl)methanone], which EC50 is on record?
Answer: 1 to 1000 nM

Question: `Cc1ccccc1CC1CN(C(=O)N2N=CCC2c2ccccc2)C1` (stereo not drawn) [Compound 37, (3-(2-methylbenzyl)azetidin-1-yl)(5-phenyl-4,5-dihydro-1H-pyrazol-1-yl) methanone] was tested. Which EC50 did it give?
Answer: 1 to 1000 nM

Question: `Cc1ccccc1C=C1CN(C(=O)N2N=CCC2c2ccccc2)C1` (stereo not drawn) [Compound 38, (3-(2-methylbenzylidene)azetidin-1-yl)(5-phenyl-4,5-dihydro-1H-pyrazol-1-yl)methanone] was tested. Which EC50 did it give?
Answer: 1 to 1000 nM

Question: Which EC50 does the source give for `COc1cccc(CC2CN(C(=O)N3N=CCC3c3ccccc3)C2)c1` (stereo not drawn) [Compound 39, (3-(3-methoxybenzyl)azetidin-1-yl)(5-phenyl-4,5-dihydro-1H-pyrazol-1-yl) methanone] here?
Answer: 1 to 1000 nM

Question: Which EC50 does the source give for `O=C(N1CC(Cc2ccccc2F)C1)N1N=CCC1c1ccccc1` (stereo not drawn) [Compound 40, (3-(2-fluorobenzyl)azetidin-1-yl)(5-phenyl-4,5-dihydro-1H-pyrazol-1-yl)methanone] here?
Answer: 1 to 1000 nM

Question: How did the EC50 turn out when `O=C(N1CC(Cc2ccc(F)cc2)C1)N1N=CCC1c1ccccc1` (stereo not drawn) [Compound 42, (3-(4-fluorobenzyl)azetidin-1-yl)(5-phenyl-4,5-dihydro-1H-pyrazol-1-yl)methanone] was run?
Answer: 1 to 1000 nM

Same assay, conditions: necrosis inhibitor activity; compounds outside 14-191; read-out: EC50

Question: `O=C(NC1CCC1)N1N=CCC1c1ccccc1` (stereo not drawn) [Compound 2, N-cyclobutyl-5-phenyl-4,5-dihydro-1H-pyrazole-1-carboxamide] was tested. Which EC50 did it give?
Answer: 1 to 1000 nM

Question: With `O=C(N1CC2(CCC2)C1)N1N=CCC1c1ccccc1` (stereo not drawn) [Compound 3, (5-phenyl-4,5-dihydro-1H-pyrazol-1-yl)(2-azaspiro[3.3]heptan-2-yl)methanone] as the compound, how does the EC50 read?
Answer: 1 to 1000 nM

Question: `CC1CN(C(=O)N2N=CCC2c2ccccc2)C1` (stereo not drawn) [Compound 4, (3-methylazetidin-1-yl)(5-phenyl-4,5-dihydro-1H-pyrazol-1-yl)methanone] was tested. Which EC50 did it give?
Answer: 1 to 1000 nM

Question: With `O=C(NC1CCCC1)N1N=CCC1c1ccccc1` (stereo not drawn) [Compound 5, N-cyclopentyl-5-phenyl-4,5-dihydro-1H-pyrazole-1-carboxamide] as the compound, how does the EC50 read?
Answer: 1 to 1000 nM

Question: `O=C(N1CCCC1)N1N=CCC1c1ccccc1` (stereo not drawn) [Compound 6, (5-phenyl-4,5-dihydro-1H-pyrazol-1-yl)(pyrrolidin-1-yl)methanone] was tested. Which EC50 did it give?
Answer: 1 to 1000 nM

Question: With `O=C(N1CCCCC1)N1N=CCC1c1ccccc1` (stereo not drawn) [Compound 7, (5-phenyl-4,5-dihydro-1H-pyrazol-1-yl)(piperidin-1-yl)methanone] as the compound, how does the EC50 read?
Answer: 1 to 1000 nM

Question: Which EC50 does the source give for `CC1CCCCN1C(=O)N1N=CCC1c1ccccc1` (stereo not drawn) [Compound 8, (2-methylpiperidin-1-yl)(5-phenyl-4,5-dihydro-1H-pyrazol-1-yl)methanone] here?
Answer: 1000 to 10000 nM

Question: With `CC1CCCN(C(=O)N2N=CCC2c2ccccc2)C1` (stereo not drawn) [Compound 9, (3-methylpiperidin-1-yl)(5-phenyl-4,5-dihydro-1H-pyrazol-1-yl)methanone] as the compound, how does the EC50 read?
Answer: 1 to 1000 nM

Question: `O=C(NC1CCCCC1)N1N=CCC1c1ccccc1` (stereo not drawn) [Compound 10, N-cyclohexyl-5-phenyl-4,5-dihydro-1H-pyrazole-1-carboxamide] was tested. Which EC50 did it give?
Answer: 1000 to 10000 nM

Question: Which EC50 does the source give for `CC1CCCC(NC(=O)N2N=CCC2c2ccccc2)C1` (stereo not drawn) [Compound 11, N-(3-methylcyclohexyl)-5-phenyl-4,5-dihydro-1H-pyrazole-1-carboxamide] here?
Answer: 1 to 1000 nM

Question: Which EC50 does the source give for `CN(C(=O)N1N=CCC1c1ccccc1)C1CCCCC1` (stereo not drawn) [Compound 12, N-cyclohexyl-N-methyl-5-phenyl-4,5-dihydro-1H-pyrazole-1-carboxamide] here?
Answer: 1000 to 10000 nM

Question: With `O=C(N1Cc2ccccc2C1)N1N=CCC1c1ccccc1` (stereo not drawn) [Compound 13, Isoindolin-2-yl(5-phenyl-4,5-dihydro-1H-pyrazol-1-yl)methanone] as the compound, how does the EC50 read?
Answer: 1 to 1000 nM

Question: For `O=C(N1CC[C@@H](Oc2cccc(Cl)c2)C1)N1N=CCC1c1ccccc1` (stereo partly drawn) [Compound 35, ((R)-3-(3-chlorophenoxy)pyrrolidin-1-yl)(5-phenyl-4,5-dihydro-1H-pyrazol-1-yl)methanone], which EC50 is on record?
Answer: 1 to 1000 nM
